US20100273740A1 (priority 2004, published 2010)
Converted amounts (≈) assume the structure as drawn.

Legend:
[1] = Cell viability of uninfected human foreskin fibroblast drug control wells; assay type: cell-based; settings: uninfected human foreskin fibroblast cells; read-out: Cytotoxic Conc. (IC50) Cell Growth
[2] = tested on: Urbani strain of SARS CoV; test: organism not typed; assay type: cell-based; settings: Vero, read-out: Effective Conc. (EC50) Against SARS CoV
Vero cells = test: cells; assay type: cell-based; settings: Chlorocebus sabaeus, read-out: Inhibitory Conc. (IC50) Cell Growth
SARS = settings: cited from earlier work
[3] = cited from earlier work
SARS-CoV = settings: cited from earlier work

## CCCCCCCCCCOC(CNC(=O)CCCCCCCCC)COP(=O)([O-])OCC[N+](C)(C)C (stereo not shown) [NHCOC9H19 OC9H18CH3 PC, 3-decanamido-2-decyloxypropyl-1-phosphocholine]
[1]
  IC50: 75 µg/mL (≈ 136 µM)

## CCCCCCCCCCCC(=O)NCC(COP(=O)([O-])OCC[N+](C)(C)C)OCCCC (stereo not shown) [NHCOC11H23 OC3H6CH3 PC, 3-dodecanamido-2-butyloxypropyl-1-phosphocholine]
[2]
  EC50: 3 µg/mL (≈ 6.06 µM)
Vero cells
  IC50: 40 µg/mL (≈ 80.9 µM)

## NC(=O)c1ncn([C@@H]2O[C@H](CO)[C@@H](O)[C@H]2O)n1 [Ribavirin, 1-β-D-ribofuranosyl-1-1,2,4-triazole-3-carboxamide]
SARS
  Benefit in SARS patients: has not been observed to be of benefit
[3]
  Patients with serum amino transferase levels reduced to normal: 40%
[3]; patients
  Effect on viral serum levels: does not lower viral serum levels

## interferon beta
SARS-CoV
  Activity in vitro against SARS-CoV: effective in vitro against SARS-CoV
